# Values joined by “and” are separate entries in the source; they are usually repeats but may differ in a detail not shown here. Equal values may be shown once.
row,SMILES,melting point
1,COc1ccc2c(C)cc(=O)[nH]c2c1 [7-methoxy-4-methyl-2(1h)-quinolinone],206 °C
2,Cc1cccc2cc[nH]c12 [7-methylindole],84 °C
3,"CC1(C)c2ccccc2Oc2ccccc21 [9,9-dimethylxanthene]",42 °C
4,OC1c2ccccc2-c2ccccc21 [9-fluorenol],156 °C
5,O=C1c2ccccc2-c2ccccc21 [9-fluorenone],83 °C
6,Cc1c2ccccc2cc2ccccc12 [9-methylanthracene],78 °C and 80 °C
7,c1ccc2c(c1)Cc1ccccc1O2 [9H-Xanthene],101 °C
8,"CCCCCCCCCCC#CC#CCCCCCCCCC(=O)O [10,12-tricosadiynoic acid]",57 °C
9,"CC(=O)OC1CCC2(C)C(CCC3C4=C(CCC32)C(C)(C#Cc2ccccc2)CC4)C1 (stereo not given) [10,17-dimethyl-17-(phenylethynyl)gon-13-en-3-yl acetate]",136 °C
10,OCCCCCCCCCCc1ccccc1 [10-Phenyldecan-1-ol],36 °C
11,"C[C@]12CCC(=O)CC1CCC1=C2CC[C@@H]2C(=O)CC[C@@H]12 (stereo not given in full) [10-methylgon-8-ene-3,17-dione]",138 °C
12,"C[C@]12CCC(=O)C=C1CC[C@@H]1[C@@H]2C(O)C[C@@]2(C)[C@H]1CC[C@]2(O)C(=O)CO (stereo not given in full) [11,17,21-Trihydroxypregn-4-ene-3,20-dione]",223 °C
13,CCCCCCCCCCC(O)CCCCCCCCCC [11-heneicosanol],72 °C
14,CCCCCCC(O)CCCCCCCCCCC(=O)O (stereo not given) [12-hydroxystearic acid],75 °C
15,"CC12CCC(=O)CC1CCC1C2CCC2(C)C(=O)CCC12O (stereo not given) [14-hydroxyandrostane-3,17-dione]",199 °C
16,CC(=O)OC1CCC2(C)C(=CCC3C2CCC2(C)C3CCC2(O)C#Cc2ccccc2)C1 (stereo not given) [17-hydroxy-21-phenylpregn-5-en-20-yn-3-yl acetate],148 °C
17,CC(=O)OC1CCC2(C)C(CCC3C2CCC2(C)C3CCC2(O)CCc2ccccc2)C1 (stereo not given) [17-hydroxy-21-phenylpregnan-3-yl acetate],138 °C
18,CC12CCC3C(CCC4CC(=O)CCC43C)C1CCC2O (stereo not given) [17-hydroxyandrostan-3-one],121 °C
19,CC1=CCC2C3CCC4CC(=O)CCC4(C)C3CCC12C (stereo not given) [17-methylandrost-16-en-3-one],141 °C
20,O=C4\C=C3/[C@]([C@H]2CC[C@]1([C@@H](CC[C@@]1(O)C)[C@@H]2CC3)C)(C)CC4 [17-methyltestosterone],164 °C
21,CCCOC1CCC2C3CCC4=CC(O)CCC4(C)C3CCC12C (stereo not given) [17-propoxyandrost-4-en-3-ol],125 °C
22,C#C[C@]1(O)CC[C@H]2[C@@H]3CCc4cc(O)ccc4[C@H]3CC[C@@]21C [17alpha-ethynylestradiol],144 °C
23,CC12CCCCC1CCC1C2CCC2(C)C1CCC2(O)C#Cc1ccccc1 (stereo not given) [21-phenylpregn-20-yn-17-ol],103 °C
24,"C[C@]12CCC(O)CC1CC[C@@H]1[C@@H]2CC[C@@]2(C)[C@H]1CC[C@]2(O)C#Cc1ccccc1 (stereo not given in full) [21-phenylpregn-20-yne-3,17-diol]",122 °C
25,"O=C(CCc1ccccc1)/C(=N/O)c1ccccc1 [(1E)-1,4-diphenylbutane-1,2-dione 1-oxime]",130 °C

row,SMILES,melting point
1,"CC(=O)O/C(=C\C=C(\OC(C)=O)c1ccccc1)c1ccccc1 [(1E,3Z)-4-(acetyloxy)-1,4-diphenylbuta-1,3-dien-1-yl acetate]",126 °C
2,"O=C(O)[C@@H]1[C@@H]2CC[C@@H](C2)[C@@H]1C(=O)O [(1R,2R,3S,4S)-Bicyclo[2.2.1]heptane-2,3-dicarboxylic acid]",160 °C
3,Nc1ccccc1C(O)(c1ccccc1)c1ccccc1 [(2-aminophenyl)(diphenyl)methanol],122 °C
4,"CC(C)/C=N/Nc1ccc([N+](=O)[O-])cc1[N+](=O)[O-] [(2E)-1-(2,4-Dinitrophenyl)-2-(2-methylpropylidene)hydrazine]",186 °C
5,O=C(/C=C/c1ccc(-c2ccccc2)o1)c1ccco1 [(2E)-1-(2-furyl)-3-(5-phenyl-2-furyl)prop-2-en-1-one],100 °C
6,"O=C(O)/C(=C/c1ccccc1)c1ccccc1 [(2E)-2,3-Diphenylacrylic acid]",173 °C
7,"O/N=C(\c1ccccc1)C(O)c1ccccc1 (stereo not given) [(2E)-2-(Hydroxyimino)-1,2-diphenylethanol]",154 °C
8,C/C(=C\C(=O)O)c1ccc(C)cc1 [(2E)-3-(4-methylphenyl)but-2-enoic acid],135 °C
9,O=C(/C=C/c1ccc(Br)o1)c1ccco1 [(2E)-3-(5-bromofuran-2-yl)-1-furan-2-ylprop-2-en-1-one],77 °C
10,CN(C)c1ccc(/C=C/C=O)cc1 [(2E)-3-[4-(Dimethylamino)phenyl]acrylaldehyde],135 °C
11,O=C(/C=C/c1ccc(-c2cccc([N+](=O)[O-])c2)o1)c1ccccc1 [(2E)-3-[5-(3-Nitrophenyl)-2-furyl]-1-phenylprop-2-en-1-one],147 °C
12,O=C(/C=C/c1ccc(-c2ccc(Br)cc2)o1)c1ccccc1 [(2E)-3-[5-(4-Bromophenyl)-2-furyl]-1-phenylprop-2-en-1-one],129 °C
13,"C/C(=C\C=C\c1ccccc1)C(=O)OC(=O)/C(C)=C/C=C/c1ccccc1 [(2E,4E)-2-methyl-5-phenylpenta-2,4-dienoic anhydride]",113 °C
14,"O=C(O)[C@H](O)[C@@H](O)C(=O)O [(2R,3R)-2,3-Dihydroxysuccinic acid]",171 °C
15,"O=C(O)[C@@H](O)[C@H](O)C(=O)O [(2S,3S)-2,3-Dihydroxysuccinic acid]",173 °C
16,"COC1=C(OC)/C(=C/C=O)OC1=O [(2Z)-(3,4-dimethoxy-5-oxofuran-2(5H)-ylidene)ethanal]",61 °C
17,O=C(O)/C=C\C(=O)O [(2Z)-But-2-enedioic acid],138 °C
18,CC(=O)/C(C)=N\O [(3Z)-3-(Hydroxyimino)butan-2-one],75 °C
19,CC(C)CCC[C@@H](C)[C@H]1CC[C@H]2[C@@H]3CC=C4C[C@@H](O)CC[C@]4(C)[C@H]3CC[C@]12C [(3beta)-Cholest-5-en-3-ol],149 °C
20,Cc1ccc(C(=O)c2ccccc2)cc1 [(4-Methylphenyl)(phenyl)methanone],57 °C
21,BrCCCCOc1ccccc1 [(4-bromobutoxy)benzene],42 °C
22,N#CCc1c[nH]cn1 [(4-imidazolyl)acetonitrile],137 °C
23,"O=C(O)CSc1nnc(S)s1 [(5-mercapto-1,3,4-thiadiazol-2-ylthio)acetic acid]",167 °C
24,"CC(=O)O[C@]1(C(C)=O)CC[C@H]2[C@@H]3C[C@H](C)C4=CC(=O)CC[C@]4(C)[C@H]3CC[C@@]21C [(6alpha)-6-Methyl-3,20-dioxopregn-4-en-17-yl acetate]",208 °C
25,C=C[C@H]1C[N@@]2CC[C@H]1C[C@@H]2[C@@H](O)c1ccnc2ccccc12 [(9S)-Cinchonan-9-ol],265 °C

row,SMILES,melting point
1,CCCCCCCC/C=C\CCCCCCCCCCCC(N)=O [(13Z)-Docos-13-enamide],79 °C
2,CC12CCC3C(CCC4CC(CC(=O)O)=CCC43C)C1CCC2=O (stereo not given) [(17-oxoandrost-2-en-3-yl)acetic acid],177 °C
3,C[C@]12CC[C@H]3[C@@H](CCC4=CC(=O)CC[C@@]43C)[C@@H]1CC[C@@H]2O [(17beta)-17-Hydroxyandrost-4-en-3-one],155 °C
4,CCCCCOc1ccc(/N=N/c2ccc(CCCC)cc2)cc1 [(E)-1-(4-butylphenyl)-2-[4-(pentyloxy)phenyl]diazene],42 °C
5,O=C(O)/C(=C/c1ccccc1[N+](=O)[O-])c1ccccc1F [(E)-2-(2-Fluorophenyl)-3-(2-nitrophenyl)propenoic acid],212 °C
6,O=C(O)/C(=C/c1ccccc1)c1ccc([N+](=O)[O-])cc1 [(E)-2-(4-nitrophenyl)-3-phenylpropenoic acid],228 °C
7,Cc1ccccc1/C=C(\C#N)c1nc2ccccc2s1 [(E)-2-Benzothiazol-2-yl-3-o-tolyl-acrylonitrile],149 °C
8,O=C(O)/C(=C/c1cccc([N+](=O)[O-])c1)c1ccccc1 [(E)-2-phenyl-3-(3-nitrophenyl)propenoic acid],185 °C
9,O=C(O)/C(=C/c1ccc([N+](=O)[O-])cc1)c1ccccc1 [(E)-2-phenyl-3-(4-nitrophenyl)propenoic acid],216 °C
10,O=C(c1ccccc1)c1c(F)c(F)c(F)c(F)c1F [(Pentafluorophenyl)(phenyl)methanone],37.5 °C
11,CC(C)(C)OC(=O)N1CCC[C@H](O)C1 [(S)-1-boc-3-hydroxypiperidine],37 °C
12,O=C(O)CSCc1ccccc1 [(benzylthio)acetic acid],62 °C
13,C/C(=C\c1ccccc1)c1ccccc1 [(e)-alpha-methylstilbene],81 °C
14,[2H]C([2H])=C(C(=O)OC([2H])([2H])[2H])C([2H])([2H])[2H] [(~2~H_3_)Methyl 2-(~2~H_3_)methyl(~2~H_2_)prop-2-enoate],-48 °C
15,[2H]c1c([2H])c([2H])c2c([2H])c([2H])c([2H])c([2H])c2c1[2H] [(~2~H_8_)Naphthalene],82 °C
16,[2H]c1c([2H])c2c([2H])c([2H])c3c([2H])c([2H])c([2H])c4c([2H])c([2H])c(c1[2H])c2c34 [(~2~H_10_)Pyrene],156 °C
17,"[2H]c1c([2H])c([2H])c(-c2c([2H])c([2H])c(-c3c([2H])c([2H])c([2H])c([2H])c3[2H])c([2H])c2[2H])c([2H])c1[2H] [(~2~H_14_)-1,1':4',1''-Terphenyl]",213 °C
18,CCCC(=O)Nc1ccc(OCC(O)CNC(C)C)c(C(C)=O)c1 (stereo not given) [Acebutolol],121 °C
19,CC=O [Acetaldehyde],-124 °C
20,CC(=O)Nc1ccc(O)cc1 [Acetaminophen],170 °C
21,CC(=O)Nc1ccccc1 [Acetanilide],114 °C
22,CC(=O)OC(C)=O [Acetic anhydride],-73 °C
23,CC(=O)Oc1ccccc1C(=O)O [Acetylsalicylic acid],135 °C
24,CC1(C)C=C(C(=O)O)C1 [Acid 9 (No name)],70 °C
25,C=CC=O [Acrylaldehyde],-87 °C
